Reference: US12600709B2, “Nonpeptide somatostatin type 5 receptor agonists and uses thereof” (Crinetics Pharmaceuticals, Inc., priority 2019, dated 2026)
pEC50: −log10 of the molar value. Like-named read-outs stand apart in the source and are kept apart here.

Legend:
[1] = molecular target: T1, human somatostatin receptor subtype 2 (Homo sapiens, UniProt P30874); experiment: cAMP assay for SST2R (inhibition of cAMP in CHO-K1 cells); assay type: cell-based; conditions: Table B; inhibition of cAMP via human SST2 receptor; read-out: SST2 potency
T1 construct: expressed in transfected cells
Procedure, shortened: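 Agonism read as decrease in NKH477 (1.6 μM)-stimulated cAMP: compounds applied 20 min, 37° C, with 0.2 mM IBMX, to CHO-K1 stably expressing human SSTR2. cAMP quantified in lysates by time-resolved fluorescence (HTRF kit, 1-24 h RT), standard-curve regression, then EC50.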

[2] = molecular target: T2, human somatostatin receptor subtype 5 (Homo sapiens, UniProt P35346); experiment: cAMP assay for SST5R (inhibition of cAMP in CHO-K1 cells); assay type: cell-based; conditions: for pEC50: inhibition of cAMP via human SST5 receptor, read-out: SST5 potency; for Fold selectivity for SST5 vs SST2: class symbols, SST5 receptor over SST2 receptor
T2 construct: expressed in transfected cells
Procedure, shortened: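 CHO-K1 cells stably expressing human SSTR5 were treated 20 min at 37 °C with compounds plus 1.6 μM NKH477 in HBSS, 0.5 mM HEPES pH 7.4, 0.1% BSA, 0.2 mM IBMX. Lysate cAMP measured by HTRF against a standard curve; EC50 from cAMP-versus-concentration plots.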

T1 sequence (P30874 whole entry): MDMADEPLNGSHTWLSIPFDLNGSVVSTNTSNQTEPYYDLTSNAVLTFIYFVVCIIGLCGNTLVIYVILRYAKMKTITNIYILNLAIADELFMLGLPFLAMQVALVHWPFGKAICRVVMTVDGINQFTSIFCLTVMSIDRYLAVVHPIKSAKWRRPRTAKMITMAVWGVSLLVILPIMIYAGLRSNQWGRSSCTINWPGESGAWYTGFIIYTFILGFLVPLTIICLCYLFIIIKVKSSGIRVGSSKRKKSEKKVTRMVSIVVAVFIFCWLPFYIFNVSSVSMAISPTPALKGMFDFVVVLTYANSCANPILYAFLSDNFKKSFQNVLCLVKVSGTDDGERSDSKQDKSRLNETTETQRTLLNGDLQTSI
T2 sequence (P35346 whole entry): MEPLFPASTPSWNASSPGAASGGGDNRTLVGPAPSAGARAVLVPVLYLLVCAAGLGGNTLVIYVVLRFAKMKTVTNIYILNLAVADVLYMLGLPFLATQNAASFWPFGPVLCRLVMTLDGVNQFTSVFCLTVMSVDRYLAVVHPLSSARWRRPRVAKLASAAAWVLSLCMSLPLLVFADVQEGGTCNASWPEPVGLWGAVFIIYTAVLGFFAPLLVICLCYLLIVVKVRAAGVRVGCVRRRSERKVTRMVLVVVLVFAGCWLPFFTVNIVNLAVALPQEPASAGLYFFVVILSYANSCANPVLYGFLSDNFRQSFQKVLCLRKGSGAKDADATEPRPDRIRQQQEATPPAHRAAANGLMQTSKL

| Compound | pEC50 [1] | pEC50 ([2]; Table A) | Fold selectivity for SST5 vs SST2 ([2]; Table B) | pEC50 ([2]; Table B) |
| --- | --- | --- | --- | --- |
| COc1ncc(C(=O)NCc2ccon2)c(N2CC[C@](C)(N)C2)c1-c1cc(F)cc(Cl)c1 [1-238, 4-[(3S)-3-amino-3-methylpyrrolidin-1-yl]-5-(3-chloro-5-fluorophenyl)-6-methoxy-N-[(1,2-oxazol-3-yl)methyl]pyridine-3-carboxamide] | 6.00 to 7.00 | > 8.00 | +++ (+++=>500) | > 8.00 |
| COc1ncc(C(=O)NCc2ccon2)c(N2CC[C@](C)(N)C2)c1-c1cc(F)cc(OC(F)F)c1 [1-239, 4-[(3S)-3-amino-3-methylpyrrolidin-1-yl]-5-[3-(difluoromethoxy)-5-fluorophenyl]-6-methoxy-N-[(1,2-oxazol-3-yl)methyl]pyridine-3-carboxamide] | < 6.00 | > 8.00 | +++ (+++=>500) | > 8.00 |
| COc1ncc(C(=O)N[C@@H](C)c2ccccn2)c(N2CC[C@](C)(N)C2)c1-c1cc(F)cc(Cl)c1 [1-240, 4-[(3S)-3-amino-3-methylpyrrolidin-1-yl]-5-(3-chloro-5-fluorophenyl)-6-methoxy-N-[(1S)-1-(pyridin-2-yl)ethyl]pyridine-3-carboxamide] | 6.00 to 7.00 | > 8.00 | +++ (+++=>500) | > 8.00 |
| Cc1ncc(C(=O)NCc2ccon2)c(N2CC[C@](C)(N)C2)c1-c1cc(F)cc(Cl)c1 [1-242, 4-[(3S)-3-amino-3-methylpyrrolidin-1-yl]-5-(3-chloro-5-fluorophenyl)-6-methyl-N-[(1,2-oxazol-3-yl)methyl]pyridine-3-carboxamide] | < 6.00 | > 8.00 | +++ (+++=>500) | > 8.00 |
| C[C@]1(N)CCN(c2c(C(=O)NCc3ccon3)cnc(C#N)c2-c2cc(F)cc(Cl)c2)C1 [1-244, 4-[(3S)-3-amino-3-methylpyrrolidin-1-yl]-5-(3-chloro-5-fluorophenyl)-6-cyano-N-[(1,2-oxazol-3-yl)methyl]pyridine-3-carboxamide] | 6.00 to 7.00 | > 8.00 | +++ (+++=>500) | > 8.00 |
| C[C@H](NC(=O)c1cnc(C#N)c(-c2cc(F)cc(Cl)c2)c1N1CC[C@](C)(N)C1)c1ccccn1 [1-245, 4-[(3S)-3-amino-3-methylpyrrolidin-1-yl]-5-(3-chloro-5-fluorophenyl)-6-cyano-N-[(1 S)-1-(pyridin-2-yl)ethyl]pyridine-3-carboxamide] | < 6.00 | > 8.00 | +++ (+++=>500) | > 8.00 |
| C[C@H](NC(=O)c1cnc(OCCO)c(-c2cc(F)cc(F)c2)c1N1CC[C@](C)(N)C1)C1CC1 [1-246, 4-[(3S)-3-amino-3-methylpyrrolidin-1-yl]-N-[(1S)-1-cyclopropylethyl]-5-(3,5-difluorophenyl)-6-(2-hydroxyethoxy)pyridine-3-carboxamide] | 6.00 to 7.00 | > 8.00 | +++ (+++=>500) | > 8.00 |
| C[C@H](NC(=O)c1cnc(OCC(=O)O)c(-c2cc(F)cc(F)c2)c1N1CC[C@](C)(N)C1)C1CC1 [1-247, 2-({4-[(3S)-3-amino-3-methylpyrrolidin-1-yl]-5-{[(1S)-1-cyclopropylethyl]carbamoyl}-3-(3,5-difluorophenyl)pyridin-2-yl}oxy)acetic acid] | < 6.00 | > 8.00 | +++ (+++=>500) | > 8.00 |
| C[C@]1(N)CCN(c2c(C(=O)NC3CCCC3)cnc(C#N)c2-c2ccnc(C(F)(F)F)c2)C1 [1-248, 4-[(3S)-3-amino-3-methylpyrrolidin-1-yl]-2-cyano-N-cyclopentyl-2′-(trifluoromethyl)-[3,4′-bipyridine]-5-carboxamide] | < 6.00 | > 8.00 | +++ (+++=>500) | > 8.00 |
| CCC(CC)NC(=O)c1cnc(C#N)c(-c2ccnc(C(F)(F)F)c2)c1N1CC[C@](C)(N)C1 [1-249, 4-[(3S)-3-amino-3-methylpyrrolidin-1-yl]-2-cyano-N-(pentan-3-yl)-2′-(trifluoromethyl)-[3,4′-bipyridine]-5-carboxamide] | 6.00 to 7.00 | > 8.00 | +++ (+++=>500) | > 8.00 |
| CC(C)CNC(=O)c1cnc(C#N)c(-c2ccnc(C(F)(F)F)c2)c1N1CC[C@](C)(N)C1 [1-250, 4-[(3S)-3-amino-3-methylpyrrolidin-1-yl]-2-cyano-N-(2-methylpropyl)-2′-(trifluoromethyl)-[3,4′-bipyridine]-5-carboxamide] | < 6.00 | > 8.00 | +++ (+++=>500) | > 8.00 |
| CCCCNC(=O)c1cnc(C#N)c(-c2ccnc(C(F)(F)F)c2)c1N1CC[C@](C)(N)C1 [1-251, 4-[(3S)-3-amino-3-methylpyrrolidin-1-yl]-N-butyl-2-cyano-2′-(trifluoromethyl)-[3,4′-bipyridine]-5-carboxamide] | < 6.00 | > 8.00 | +++ (+++=>500) | > 8.00 |
| COc1cc(-c2c(C#N)ncc(C(=O)NC3CCCCC3)c2N2CC[C@](C)(N)C2)ccn1 [1-252, 4-[(3S)-3-amino-3-methylpyrrolidin-1-yl]-2-cyano-N-cyclohexyl-2′-methoxy-[3,4′-bipyridine]-5-carboxamide] | 6.00 to 7.00 | > 8.00 | +++ (+++=>500) | > 8.00 |

Continued, values first:

| pEC50 [1] | pEC50 ([2]; Table A) | Fold selectivity for SST5 vs SST2 ([2]; Table B) | pEC50 ([2]; Table B) | Compound |
| --- | --- | --- | --- | --- |
| 6.00 to 7.00 | > 8.00 | +++ (+++=>500) | > 8.00 | CCC(CC)NC(=O)c1cnc(C#N)c(-c2ccnc(OC)c2)c1N1CC[C@](C)(N)C1 [1-253, 4-[(3S)-3-amino-3-methylpyrrolidin-1-yl]-2-cyano-2′-methoxy-N-(pentan-3-yl)-[3,4′-bipyridine]-5-carboxamide] |
| < 6.00 | > 8.00 | +++ (+++=>500) | > 8.00 | COc1cc(-c2c(C#N)ncc(C(=O)NC3CCCC3)c2N2CC[C@](C)(N)C2)ccn1 [1-254, 4-[(3S)-3-amino-3-methylpyrrolidin-1-yl]-2-cyano-N-cyclopentyl-2′-methoxy-[3,4′-bipyridine]-5-carboxamide] |
| < 6.00 | > 8.00 | +++ (+++=>500) | > 8.00 | COc1cc(-c2c(C)ncc(C(=O)NC3CCCCC3)c2N2CC[C@](C)(N)C2)ccn1 [1-255, 4-[(3S)-3-amino-3-methylpyrrolidin-1-yl]-N-cyclohexyl-2′-methoxy-2-methyl-[3,4′-bipyridine]-5-carboxamide] |
| < 6.00 | > 8.00 | +++ (+++=>500) | > 8.00 | COc1cc(-c2c(C)ncc(C(=O)NC3CCCC3)c2N2CC[C@](C)(N)C2)ccn1 [1-256, 4-[(3S)-3-amino-3-methylpyrrolidin-1-yl]-N-cyclopentyl-2′-methoxy-2-methyl-[3,4′-bipyridine]-5-carboxamide] |
| < 6.00 | > 8.00 | +++ (+++=>500) | > 8.00 | Cc1ncc(C(=O)NC2CCCCC2)c(N2CC[C@](C)(N)C2)c1-c1ccnc(C(F)(F)F)c1 [1-257, 4-[(3S)-3-amino-3-methylpyrrolidin-1-yl]-N-cyclohexyl-2-methyl-2′-(trifluoromethyl)-[3,4′-bipyridine]-5-carboxamide] |
| < 6.00 | > 8.00 | +++ (+++=>500) | > 8.00 | Cc1ncc(C(=O)NC2CCCC2)c(N2CC[C@](C)(N)C2)c1-c1ccnc(C(F)(F)F)c1 [1-258, 4-[(3S)-3-amino-3-methylpyrrolidin-1-yl]-N-cyclopentyl-2-methyl-2′-(trifluoromethyl)-[3,4′-bipyridine]-5-carboxamide] |
| 7.00 to 8.00 | > 8.00 | +++ (+++=>500) | > 8.00 | COc1ncc(C(=O)N[C@@H](C)C(F)(F)F)c(N2CC[C@](C)(N)C2)c1-c1ccc(F)c(F)c1 [1-259, 4-[(3S)-3-amino-3-methylpyrrolidin-1-yl]-5-(3,4-difluorophenyl)-6-methoxy-N-[(2S)-1,1,1-trifluoropropan-2-yl]pyridine-3-carboxamide] |
| 6.00 to 7.00 | > 8.00 | +++ (+++=>500) | > 8.00 | COc1ncc(C(=O)N[C@@H](C)C(F)(F)F)c(N2CC[C@](C)(N)C2)c1-c1ccc(Cl)c(F)c1 [1-260, 4-[(3S)-3-amino-3-methylpyrrolidin-1-yl]-5-(4-chloro-3-fluorophenyl)-6-methoxy-N-[(2S)-1,1,1-trifluoropropan-2-yl]pyridine-3-carboxamide] |
| 6.00 to 7.00 | > 8.00 | +++ (+++=>500) | > 8.00 | COc1ncc(C(=O)N[C@@H](C)C(F)(F)F)c(N2CC[C@](C)(N)C2)c1-c1ccc(F)c(Cl)c1 [1-261, 4-[(3S)-3-amino-3-methylpyrrolidin-1-yl]-5-(3-chloro-4-fluorophenyl)-6-methoxy-N-[(2S)-1,1,1-trifluoropropan-2-yl]pyridine-3-carboxamide] |
| 6.00 to 7.00 | > 8.00 | +++ (+++=>500) | > 8.00 | COc1ncc(C(=O)N[C@@H](C)C2CC2)c(N2CC[C@](C)(N)C2)c1-c1ccc(F)c(F)c1 [1-262, 4-[(3S)-3-amino-3-methylpyrrolidin-1-yl]-N-[(1S)-1-cyclopropylethyl]-5-(3,4-difluorophenyl)-6-methoxypyridine-3-carboxamide] |
